Measurements as given in patent US11542313B2, “Incretin analogs and uses thereof” (Eli Lilly and Company, priority 2017, dated 2023).
Where “and” joins values, the source holds several entries; their conditions need not be identical. Equal values may be shown once. Marks after values point to notes of the source that are not given here.

Experiments:
male Wistar rats = experiment: Intravenous glucose tolerance test (ivGTT), insulin secretion in male Wistar rats; format: in vivo, rat; parameters: unit not given here; conditions: semaglutide 10 nmol/kg positive control in the run of the Example, mean ± SEM, n=6
Protocol: An intravenous glucose tolerance test (ivGTT) in rats (male Wistar) is used to estimate insulinotropic potency of the exemplary analogs. The GLP-1 RA semaglutide is used as a positive control. Rats with surgically implanted cannulas in the jugular vein and carotid artery (Envigo, Indianapolis, Ind.; 280-320 grams) are housed one per cage in polycarbonate cages with filter tops. Rats are maintained on a 12-hour light-dark cycle at 21° C. and receive 2014 Teklad Global Diet (Envigo, Indianapolis) and deionized water ad libitum. Rats are randomized by body weight and dosed 1.5 mL/kg subcutaneous (sc) with exemplary analogs 16 hours prior to glucose administration, and then fasted. Stock concentrations of […] of the exemplary analogs are diluted in Tris buffer pH 8.0 to 6.667 nMol/mL, 2.0 nMol/mL, 0.667 nMol/mL, 0.2 nMol/mL; doses tested are vehicle, 1, 3 and 10 nMol/kg, and, in some cases 0.3 and 30 nMol/kg. Semaglutide is used as positive control, and its insulinotropic effects are measured both in its own test (vehicle and 1, 3, 10 and 30 nMol/kg doses) and in connection with each run of the exemplary analogs (10 nMol/kg dose).
A time 0 blood sample is collected into EDTA tubes after which glucose is administered ([…], 5 mL/kg). […] Plasma insulin is determined using an electrochemiluminescence assay (Meso Scale, Gaithersburg, Md.). […]

[1] = system: diet-induced obese (DIO) C57BL/6 mice; experiment: Diet-induced obese C57BL/6 mice, 15-day study; format: in vivo, mouse; conditions: for Body weight % change: days 1 to 15, DIO mice
Protocol: The exemplary incretin analogs as described herein are proposed as a treatment not only for diabetes but also for metabolic syndrome, which is a collection of co-morbidities (dyslipidemia, obesity, hepatic steatosis, etc.) associated with insulin resistance and diabetes. To investigate the effects of the exemplary analogs on parameters such as weight loss, metabolism, body composition and hepatic steatosis, they were dosed to C57BL/6 diet-induced obese (DIO) mice. These animals, although not diabetic, display insulin resistance, dyslipidemia and hepatic steatosis, all characteristics of metabolic syndrome, after being placed on a high-fat diet for 18 weeks.
Specifically, DIO male C57BL/6 mice 24 to 25 weeks old maintained on a calorie-rich diet are used in the following studies. Mice are individually housed in a temperature-controlled (24° C.) facility with 12-hour light/dark cycle (lights on 22:00) and free access to food (TD95217) and water. After a minimum of 2 weeks acclimation to the facility, the mice are randomized according to their body weight, so each experimental group of animals would have similar body weight. The body weights range from 40 to 51 g.
All groups contain 5-6 mice. Vehicle, exemplary analogs dissolved in vehicle (40 mM Tris-HCl at pH 8.0), and semaglutide dissolved in vehicle are administered by subcutaneous (SC) injection (10 mL/kg) to ad libitum fed DIO mice 30 to 90 minutes prior to the onset of the dark cycle every 3 days for 15 days. SC injections are made on Day 1, 4, 7, 10 and 13. Body weight and food intake are measured daily throughout the study.
Absolute changes in body weight are calculated by subtracting the body weight of the same animal prior to the first injection of vehicle, analog or semaglutide. On Days 0 and 15, total fat mass is measured by nuclear magnetic resonance (NMR) using an Echo Medical System Instrument (Houston, Tex.). On Day 15, animals are sacrificed prior to dark photoperiod, and the livers are removed and frozen. Liver triglycerides, determined from homogenates of livers collected at sacrifice, and plasma cholesterol are measured on a Hitachi Modular P clinical analyzer.
Data are presented as mean±SEM of 5-6 animals per group in Tables 7 and 8 below. Statistical analysis is performed using repeated measures ANOVA, followed by Dunnett's method for multiple comparisons. Significant differences are identified at p<0.05.

[2] = 3 nmol/kg, after fifteen days, DIO mice, mean ± SEM

semaglutide
AUC30min of Insulin after a Bolus IV Glucose (male Wistar rats): 44.7 +/− 3.7* and 55.1 +/− 9.0* and 40.2 +/− 2.5* and 38.4 +/− 6.0* and 56.3 +/− 7.7* and 48.4 +/− 6.6* and 51.86 +/− 6.7* and 45.6 +/− 6.6* | Body weight % change ([1]; 3 nmol/kg SC every 3 days): −2.62 ± 0.49% | ALT [1, 2]: 99.8 ± 14.84 IU/L | Cholesterol [1, 2]: 218.0 ± 9.23 mg/dL | Glucose [1, 2]: 137.8 ± 7.34 mg/dL | Liver Triglycerides [1, 2]: 226.4 ± 23.8 mg/g tissue | Plasma Insulin [1, 2]: 4196 ± 1014 pg/mL | Body weight % change ([1]; 10 nmol/kg SC every 3 days): −10.31 ± 1.25% | Body weight % change ([1]; 30 nmol/kg SC every 3 days): −15.49 ± 2.44%
